From paper PMC10648852, “Molecular drivers of resistance to sulbactam-durlobactam in contemporary clinical isolates of Acinetobacter baumannii” (Antimicrobial Agents and Chemotherapy, 2023)
“And” between values parts separate entries of the source, which are not always exact repeats. Identical values can stand only once. Like-named read-outs stand apart in the source and are kept apart here.

How the values were obtained:
[1] = tested on: ABC clinical isolates with SUL-DUR MIC > 4 µg/mL; assay: microbe, parasite or virus in culture; assay type: cell-based, Acinetobacter baumannii-calcoaceticus complex
Procedure, shortened: (§1)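 Broth microdilution MICs following CLSI methods, interpreted with CLSI breakpoints where available. Sulbactam tested as twofold dilutions combined with fixed 4 µg/mL durlobactam.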

[2] = tested on: A. baumannii clinical isolates; assay: microbe, parasite or virus in culture; assay type: cell-based; details: Acinetobacter baumannii
Procedure, shortened: as §1

[3] = tested on: A. nosocomialis clinical isolate; assay: microbe, parasite or virus in culture; assay type: cell-based; details: Acinetobacter nosocomialis, isolate ARC7023 (IHMA 2118812), France, BSI, 2019, read-out: MIC
Procedure, shortened: as §1

[4] = tested on: A. pittii clinical isolates; assay: microbe, parasite or virus in culture; assay type: cell-based; details: Acinetobacter pittii
Procedure, shortened: as §1

A. baumannii PBP3 S390T = tested on: A. baumannii PBP3 S390T; set-up: method as in McLeod et al. (2018); details: average ± SD, ref McLeod et al. (2018); cited from earlier work
A. baumannii PBP3 S395F = tested on: A. baumannii PBP3 S395F; set-up: method as in McLeod et al. (2018); details: average ± SD, ref McLeod et al. (2018); cited from earlier work
[5] = tested on: A. baumannii wild-type PBP3; assay: Acylation rate constant (kinact/Ki), fluorescence anisotropy competition with BOCILLIN; details: Wildtype PBP3
A. baumannii PBP3 H370Y = assay: as above
A. baumannii PBP3 N377Y = assay: as above
A. baumannii PBP3 Q488K = assay: as above

CC1(C)[C@H](C(=O)O)N2C(=O)C[C@H]2S1(=O)=O [sulbactam]
%NS (% non-susceptibility) ([1]; 64 non-clonal ABC isolates, 2023 CLSI breakpoints plus FDA breakpoint of 4 µg/mL for SUL-DUR): 100%
MIC50 ([1]; Acinetobacter): > 64 µg/mL
MIC90 ([1]; Acinetobacter): > 64 µg/mL
MIC ([1]; Acinetobacter, read-out: MIC Max): > 64 µg/mL
MIC ([1]; Acinetobacter, read-out: MIC Min): 8 µg/mL
MIC ([2]; isolate ARC6644 (IHMA 1420327), Mexico, UTI, 2016, read-out: MIC): 64 µg/mL
MIC ([2]; isolate ARC6645 (IHMA 1435703), France, UTI, 2016, read-out: MIC): > 64 µg/mL
MIC ([2]; isolate ARC6646 (IHMA 1484127), United States, RTI, 2016, read-out: MIC): > 64 µg/mL
MIC ([2]; isolate ARC6647 (IHMA 1386786), Argentina, RTI, 2016, read-out: MIC): > 64 µg/mL
MIC ([2]; isolate ARC6648 (IHMA 1407634), Spain, RTI, 2016, read-out: MIC): 64 µg/mL
MIC ([2]; isolate ARC6650 (IHMA 1457337), Argentina, RTI, 2016, read-out: MIC): 64 µg/mL
MIC ([2]; isolate ARC6652 (IHMA 1465642), Belgium, RTI, 2016, read-out: MIC): > 64 µg/mL
MIC ([2]; isolate ARC6653 (IHMA 1308777), Vietnam, RTI, 2016, read-out: MIC): > 64 µg/mL
MIC ([2]; isolate ARC6799 (IHMA 1562935), Spain, UTI, 2017, read-out: MIC): > 64 µg/mL
MIC ([2]; isolate ARC6800 (IHMA 1557526), Turkey, RTI, 2017, read-out: MIC): 64 µg/mL
MIC ([2]; isolate ARC6801 (IHMA 1662094), Thailand, RTI, 2017, read-out: MIC): 64 µg/mL
MIC ([2]; isolate ARC6802 (IHMA 1557073), Spain, UTI, 2017, read-out: MIC): > 64 µg/mL
MIC ([2]; isolate ARC6803 (IHMA 1589408), Belgium, UTI, 2017, read-out: MIC): > 64 µg/mL
MIC ([2]; isolate ARC6805 (IHMA 1558650), United States, RTI, 2017, read-out: MIC): 64 µg/mL
MIC ([2]; isolate ARC6808 (IHMA 1557168), Spain, RTI, 2017, read-out: MIC): 16 µg/mL
MIC ([2]; isolate ARC6809 (IHMA 1699528), Guatemala, RTI, 2017, read-out: MIC): > 64 µg/mL
MIC ([2]; isolate ARC6810 (IHMA 1699548), Guatemala, RTI, 2017, read-out: MIC): > 64 µg/mL
MIC ([2]; isolate ARC6812 (IHMA 1699530), Guatemala, RTI, 2017, read-out: MIC): > 64 µg/mL
MIC ([2]; isolate ARC6813 (IHMA 1699543), Guatemala, UTI, 2017, read-out: MIC): > 64 µg/mL
MIC ([2]; isolate ARC6814 (IHMA 1699512), Guatemala, RTI, 2017, read-out: MIC): > 64 µg/mL
MIC ([2]; isolate ARC6815 (IHMA 1699513), Guatemala, RTI, 2017, read-out: MIC): > 64 µg/mL
MIC ([2]; isolate ARC6816 (IHMA 1699521), Guatemala, RTI, 2017, read-out: MIC): > 64 µg/mL
MIC ([2]; isolate ARC6817 (IHMA 1699523), Guatemala, RTI, 2017, read-out: MIC): > 64 µg/mL
MIC ([2]; isolate ARC6818 (IHMA 1683261), Thailand, RTI, 2017, read-out: MIC): 64 µg/mL
MIC ([2]; isolate ARC6819 (IHMA 1683267), Thailand, RTI, 2017, read-out: MIC): > 64 µg/mL
MIC ([2]; isolate ARC6820 (IHMA 1647876), Argentina, RTI, 2017, read-out: MIC): > 64 µg/mL
MIC ([2]; isolate ARC6821 (IHMA 1699517), Guatemala, RTI, 2017, read-out: MIC): > 64 µg/mL
MIC ([2]; isolate ARC6822 (IHMA 1637626), Guatemala, RTI, 2017, read-out: MIC): > 64 µg/mL
MIC ([2]; isolate ARC6823 (IHMA 1620872), Greece, SSSI, 2017, read-out: MIC): 32 µg/mL
MIC ([2]; isolate ARC6824 (IHMA 1625487), Argentina, BSI, 2017, read-out: MIC): 64 µg/mL
MIC ([2]; isolate ARC6937 (IHMA 1562926), Spain, UTI, 2017, read-out: MIC): > 64 µg/mL
MIC ([2]; isolate ARC6950 (IHMA 1820064), Israel, RTI, 2018, read-out: MIC): 64 µg/mL
MIC ([2]; isolate ARC6953 (IHMA 1909827), Turkey, IAI, 2018, read-out: MIC): 64 µg/mL
MIC ([2]; isolate ARC6954 (IHMA 1838192), Guatemala, SSSI, 2018, read-out: MIC): > 64 µg/mL
MIC ([2]; isolate ARC6955 (IHMA 1825425), United States, RTI, 2018, read-out: MIC): 16 µg/mL
MIC ([2]; isolate ARC7008 (IHMA 2009813), Thailand, BSI, 2019, read-out: MIC): > 64 µg/mL
MIC ([2]; isolate ARC7009 (IHMA 2043611), United States, UTI, 2019, read-out: MIC): > 64 µg/mL
MIC ([2]; isolate ARC7010 (IHMA 2043398), United States, RTI, 2019, read-out: MIC): > 64 µg/mL
MIC ([2]; isolate ARC7011 (IHMA 2104553), Germany, RTI, 2019, read-out: MIC): > 64 µg/mL
MIC ([2]; isolate ARC7012 (IHMA 2010001), Thailand, RTI, 2019, read-out: MIC): > 64 µg/mL
MIC ([2]; isolate ARC7013 (IHMA 1962831), Argentina, RTI, 2019, read-out: MIC): > 64 µg/mL
MIC ([2]; isolate ARC7014 (IHMA 2045328), Guatemala, IAI, 2019, read-out: MIC): 64 µg/mL
MIC ([2]; isolate ARC7015 (IHMA 2045327), Guatemala, UTI, 2019, read-out: MIC): > 64 µg/mL
MIC ([2]; isolate ARC7016 (IHMA 2148441), Brazil, BSI, 2019, read-out: MIC): 64 µg/mL
MIC ([2]; isolate ARC7017 (IHMA 2148446), Brazil, BSI, 2019, read-out: MIC): 64 µg/mL
MIC ([2]; isolate ARC7018 (IHMA 2045454), Guatemala, IAI, 2019, read-out: MIC): > 64 µg/mL
MIC ([2]; isolate ARC7019 (IHMA 2114463), Thailand, RTI, 2019, read-out: MIC): 32 µg/mL
MIC ([2]; isolate ARC7020 (IHMA 2045326), Guatemala, RTI, 2019, read-out: MIC): 32 µg/mL
MIC ([2]; isolate ARC7021 (IHMA 1966347), Guatemala, RTI, 2019, read-out: MIC): > 64 µg/mL
MIC ([2]; isolate ARC7022 (IHMA 2045319), Guatemala, IAI, 2019, read-out: MIC): 32 µg/mL
MIC ([2]; isolate ARC7024 (IHMA 2059448), Turkey, RTI, 2019, read-out: MIC): 64 µg/mL
MIC ([2]; isolate ARC7025 (IHMA 2002121), Spain, RTI, 2019, read-out: MIC): 32 µg/mL
MIC ([2]; isolate ARC7026 (IHMA 2104494), Guatemala, BSI, 2019, read-out: MIC): 32 µg/mL
MIC ([2]; isolate ARC7082 (IHMA 2160640), Belgium, BSI, 2020, read-out: MIC): > 64 µg/mL
MIC ([2]; isolate ARC7083 (IHMA 2163687), United States, RTI, 2020, read-out: MIC): 64 µg/mL
MIC ([2]; isolate ARC7084 (IHMA 2189596), Germany, RTI, 2020, read-out: MIC): > 64 µg/mL
MIC ([2]; isolate ARC7085 (IHMA 2205747), Guatemala, IAI, 2020, read-out: MIC): > 64 µg/mL
MIC ([2]; isolate ARC7086 (IHMA 2207563), Israel, RTI, 2020, read-out: MIC): 32 µg/mL
MIC ([2]; isolate ARC7088 (IHMA 2215554), Turkey, BSI, 2020, read-out: MIC): > 64 µg/mL
MIC ([2]; isolate ARC7089 (IHMA 2240345), Argentina, BSI, 2020, read-out: MIC): > 64 µg/mL
MIC ([2]; isolate ARC7090 (IHMA 2244410), Poland, RTI, 2020, read-out: MIC): > 64 µg/mL
MIC ([2]; isolate ARC7091 (IHMA 2244564), Australia, RTI, 2020, read-out: MIC): > 64 µg/mL
MIC ([2]; isolate ARC7092 (IHMA 2258772), United States, BSI, 2020, read-out: MIC): > 64 µg/mL
MIC ([2]; isolate ARC7093 (IHMA 2258783), United States, RTI, 2020, read-out: MIC): 64 µg/mL
MIC ([2]; isolate ARC7094 (IHMA 2296423), Turkey, RTI, 2020, read-out: MIC): > 64 µg/mL
MIC ([2]; isolate ARC7095 (IHMA 2320843), Turkey, BSI, 2020, read-out: MIC): 64 µg/mL
MIC ([2]; isolate ARC7156 (IHMA 2455450), Greece, RTI, 2021, read-out: MIC): > 64 µg/mL
MIC ([2]; isolate ARC7158 (IHMA 2523738), Italy, BSI, 2021, read-out: MIC): > 64 µg/mL
MIC ([2]; isolate ARC7159 (IHMA 2456229), Malaysia, RTI, 2021, read-out: MIC): > 64 µg/mL
MIC ([2]; isolate ARC7160 (IHMA 2458626), Thailand, RTI, 2021, read-out: MIC): 64 µg/mL
MIC ([2]; isolate ARC7161 (IHMA 2429252), Ukraine, RTI, 2021, read-out: MIC): 8 µg/mL
MIC ([2]; isolate ARC7162 (IHMA 2411847), United States, BSI, 2021, read-out: MIC): > 64 µg/mL
MIC ([2]; isolate ARC7163 (IHMA 2477704), United States, BSI, 2021, read-out: MIC): > 64 µg/mL
MIC [3]: 32 µg/mL
MIC ([4]; isolate ARC6949 (IHMA 1898982), Romania, RTI, 2018, read-out: MIC): 64 µg/mL
MIC ([4]; isolate ARC6951 (IHMA 1776233), Philippines, RTI, 2018, read-out: MIC): > 64 µg/mL
MIC ([4]; isolate ARC6952 (IHMA 1899008), Romania, RTI, 2018, read-out: MIC): > 64 µg/mL
MIC ([4]; isolate ARC7087 (IHMA 2212062), Colombia, BSI, 2020, read-out: MIC): 64 µg/mL
k inact/K i (A. baumannii PBP3 S390T): 0.03 ± 0.02 ([3]) M^-1s^-1
k inact/K i (A. baumannii PBP3 S395F): 0.63 ± 0.06 ([3]) M^-1s^-1
% WT [5]: 100%
k inact/K i ([5]; average ± SD): 15 ± 3 ([10]) M^-1s^-1
% WT (A. baumannii PBP3 H370Y): ~ 120% and 126%
k inact/K i (A. baumannii PBP3 H370Y; average ± SD): 19 ± 2 ([2]) M^-1s^-1
% WT (A. baumannii PBP3 H370Y; listed as Sulbactam): 126.7%
% WT (A. baumannii PBP3 N377Y): 60%–73%
k inact/K i (A. baumannii PBP3 N377Y; average ± SD): 11 ± 2 ([2]) M^-1s^-1
% WT (A. baumannii PBP3 N377Y; listed as Sulbactam): 73.3%
% WT (A. baumannii PBP3 Q488K): 60%–73%
k inact/K i (A. baumannii PBP3 Q488K; average ± SD): 9.9 ± 0.3 ([2]) M^-1s^-1
% WT (A. baumannii PBP3 Q488K; listed as Sulbactam): 66%
